Legend:
[1] = target: T1, Cereblon (CRBN) protein (Homo sapiens, UniProt Q96SW2); assay: CRBN binding affinity, E3scan (Eurofins) competition binding with qPCR read-out; details: lower % Ctrl = stronger binding, DMSO = 100 % Ctrl, lenalidomide = 0 % Ctrl
T1 construct: purchased Eurofins (E3scan service); host or cells: HEK-293
Method: Specifically, CRBN was produced using a HEK-293 cell line and labeled with DNA for qPCR detection. Streptavidin-coated magnetic beads were treated with a biotinylated small-molecule ligand at room temperature for 30 minutes to generate an affinity resin for E3scan analysis. The liganded beads were blocked with excess biotin and washed with a blocking buffer (SeaBlock (Pierce), 1 % BSA, 0.05 % Tween 20, 1 mM DTT) to remove unbound ligands and prevent non-specific binding. […] The test compound was prepared as a 100× stock in 100 % DMSO and diluted directly into the assay solution. All reactions were performed in a polypropylene 384-well plate with a final reaction volume of 0.02 mL. […] The CRBN concentration in the eluate was measured by qPCR. […] A lower '% Ctrl' indicates a stronger binding affinity. […] ((test compound signal−positive control signal)/(negative control signal−positive control signal)) × 100 [formula]

[2] = system: T-cell leukemia cell line Jurkat; assay: Cell viability assay (Cell Counting Kit-8), Jurkat; type: cell-based; details: Homo sapiens, 72 hours, CCK-8, absorbance 450 nm
Method: (§1) To evaluate the cytotoxicity of the compounds synthesized in the Preparation Examples against cancer cells, a cell viability assay following treatment with the synthesized compounds was performed using a T-cell leukemia cell line Jurkat (KCLB, Cat# 40152), a human acute monocytic leukemia cell line MV-4-11 (ATCC, Cat# CRL-9591), and a human multiple myeloma cell line MM.1S (ATCC, Cat# CRL-2974).
(§2) As a culture medium for the cell lines, an RPMI medium containing 10 % heat-inactivated FBS and 1 % penicillin/streptomycin (P/S) antibiotics was used. The culture medium was stored refrigerated and warmed in a 37 °C water bath before use. Each cell line was used for the test after a stabilization period of at least 2 weeks after thawing, and cell culture was performed based on information provided by the cell line manufacturer regarding the thawing and subculture conditions.
(§3) The Jurkat, MV-4-11, or MM.1S cell line was seeded in a 96-well plate at a density of 1 × 10^4 cells/well and incubated in a 37 °C CO2 incubator overnight. After incubation, a prepared test compound was applied to each cell line, and the cells were incubated in a 37 °C CO2 incubator for 72 hours. After 72 hours of incubation, a Cell Counting Kit-8 (Dojindo, Cat# CK04-20) reagent was added, and the cells were incubated in a 37 °C CO2 incubator. Then, the absorbance was measured at 450 nm using a SpectraMax M3 Microplate Reader (N=2, duplicate measurement). The evaluation concentrations for evaluating the cytotoxicity of the compounds were 10 points: 100 µM, 20 µM, 4 µM, 0.8 µM, 0.16 µM, 0.032 µM, 0.0064 µM, 0.00128 µM, 0.000256 µM, and 0 µM, and the test was performed at 2 wells/concentration point (n=2). A GI50 was derived using a GraphPad Prism program.

[3] = system: human acute monocytic leukemia cell line MV-4-11; assay: Cell viability assay (Cell Counting Kit-8), MV-4-11; type: cell-based; details: MV4-11, 72 hours, CCK-8, absorbance 450 nm
Method: as §1, §2, §3

[4] = system: human multiple myeloma cell line MM.1S; assay: Cell viability assay (Cell Counting Kit-8), MM.1S; type: cell-based; details: MM1.S, 72 hours, CCK-8, absorbance 450 nm
Method: as §1, §2, §3

Compound | CRBN binding affinity (% Ctrl @ 5µM) [1] | GI50 [2] [nM] | GI50 [3] [nM] | GI50 [4] [nM]
O=C1CCC(N2Cc3cc(C(=O)c4cc5ccccc5[nH]4)ccc3C2=O)C(=O)N1 (centres unmarked) [Compound 3, 3-(5-(1H-indole-2-carbonyl)-1-oxoisoindolin-2-yl)piperidine-2,6-dione] | A (0 ≤ '% Ctrl' < 0.1) | ≤ 100 | ≤ 100 | ≤ 100
O=C1CCC(N2Cc3cc(C(=O)c4ccc(Nc5ccccc5)cc4)ccc3C2=O)C(=O)N1 (centres unmarked) [Compound 15, 3-(1-oxo-5-(4-(phenylamino)benzoyl)isoindolin-2-yl)piperidine-2,6-dione] | A (0 ≤ '% Ctrl' < 0.1) | 100 to 1000 | ≤ 100 | ≤ 100
O=C1CCC(N2Cc3cc(C(=O)c4n[nH]c5ccccc45)ccc3C2=O)C(=O)N1 (centres unmarked) [Compound 17, 3-(5-(1H-indazole-3-carbonyl)-1-oxoisoindolin-2-yl)piperidine-2,6-dione] | A (0 ≤ '% Ctrl' < 0.1) | 100 to 1000 | ≤ 100 | ≤ 100
O=C1CCC(N2Cc3cc(C(=O)c4c[nH]c5cc(Cl)ccc45)ccc3C2=O)C(=O)N1 (centres unmarked) [Compound 18, 3-(5-(6-chloro-1H-indole-3-carbonyl)-1-oxoisoindolin-2-yl)piperidine-2,6-dione] | – | 100 to 1000 | ≤ 100 | ≤ 100
O=C1CCC(N2Cc3cc(C(=O)c4ccc5cn[nH]c5c4)ccc3C2=O)C(=O)N1 (centres unmarked) [Compound 21, 3-(5-(1H-indazole-6-carbonyl)-1-oxoisoindolin-2-yl)piperidine-2,6-dione] | A (0 ≤ '% Ctrl' < 0.1) | 100 to 1000 | > 10000 | 1000 to 10000
CNc1ccc2cc(C(=O)c3ccc4c(c3)CN(C3CCC(=O)NC3=O)C4=O)[nH]c2c1 (centres unmarked) [Compound 22, 3-(5-(6-(methylamino)-1H-indole-2-carbonyl)-1-oxoisoindolin-2-yl)piperidine-2,6-dione] | A (0 ≤ '% Ctrl' < 0.1) | ≤ 100 | ≤ 100 | ≤ 100
O=C1CCC(N2Cc3cc(C(=O)N4Cc5cccc6cccc4c56)ccc3C2=O)C(=O)N1 (centres unmarked) [Compound 31, 3-(5-(1,2-dihydrobenxo[cd]indole-1-carbonyl)-1-oxoisoindolin-2-yl)piperidine-2,6-dione] | A (0 ≤ '% Ctrl' < 0.1) | 100 to 1000 | – | ≤ 100
O=C1CCC(N2Cc3cc(C(=O)c4cc5ccccc5o4)ccc3C2=O)C(=O)N1 (centres unmarked) [Compound 34, 3-(5-(benzofuran-2-carbonyl)-1-oxoisoindolin-2-yl)piperidine-2,6-dione] | A (0 ≤ '% Ctrl' < 0.1) | ≤ 100 | – | ≤ 100
O=C1CCC(N2Cc3cc(C(=O)c4cn(-c5ccccc5)c5ccccc45)ccc3C2=O)C(=O)N1 (centres unmarked) [Compound 35, 3-(1-oxo-5-(1-phenyl-1H-indole-3-carbonyl)isoindolin-2-yl)piperidine-2,6-dione] | A (0 ≤ '% Ctrl' < 0.1) | ≤ 100 | – | ≤ 100
O=C1CCC(N2Cc3cc(C(=O)c4coc5ccccc45)ccc3C2=O)C(=O)N1 (centres unmarked) [Compound 37, 3-(5-(benzofuran-3-carbonyl)-1-oxoisoindolin-2-yl)piperidine-2,6-dione] | C (1 ≤ % Ctrl' < 10) | 100 to 1000 | – | ≤ 100

— patent publication EP4813977A1, “NOVEL COMPOUND AND USE THEREOF” (Protier Biotech Inc., priority 2023, dated 2025)
